Source: patent US8415469B2, “Compounds and methods for kinase modulation, and indications therefor” (Plexxikon Inc., priority 2005, dated 2013)

Experiments:
Format in all cases: biochemical
Abl = biological target: T1, Abl (Homo sapiens, UniProt P00519); assay: AlphaScreen kinase assay, Abl; conditions: read-out: activity toward kinase Abl, IC50
T1 construct: P1121. pET-SPEC BI-PTP Abl G227-V515-X; His6 (N); made in house; host or cells: E. coli (PTP1B co-expressed)
T1 sequence (P00519 with tags, fused parts or gaps): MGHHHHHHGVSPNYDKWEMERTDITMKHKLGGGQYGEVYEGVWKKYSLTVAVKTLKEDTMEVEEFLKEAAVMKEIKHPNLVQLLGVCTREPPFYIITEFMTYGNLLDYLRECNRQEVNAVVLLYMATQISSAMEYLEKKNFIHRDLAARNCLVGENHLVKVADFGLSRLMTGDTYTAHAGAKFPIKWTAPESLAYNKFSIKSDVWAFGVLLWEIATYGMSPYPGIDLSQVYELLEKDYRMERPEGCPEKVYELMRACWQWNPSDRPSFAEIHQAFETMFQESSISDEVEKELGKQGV
Procedure, shortened: (§1)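 Kinase activity was measured as phosphorylation of a biotinylated peptide, detected with streptavidin donor and phospho-antibody acceptor beads. Compounds, from 20 mM DMSO stocks, were tested at eight concentrations in 1:3 serial dilution.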

B-Raf V600E = biological target: T2, B-Raf V600E (Homo sapiens, UniProt P15056, V600E); assay: AlphaScreen kinase assay, B-Raf V600E; conditions: read-out: IC50, activity toward kinase B-Raf V600E
T2 construct: P4254. pFastBacBD-CDC37 BRAF D437-K722-X, V600E; His6 with pFastBac HT leader (TEV site) (N); made in house; host or cells: Sf9 (baculovirus; chaperone CDC37 co-expressed)
T2 sequence (P15056 with tags, fused parts or gaps V600E): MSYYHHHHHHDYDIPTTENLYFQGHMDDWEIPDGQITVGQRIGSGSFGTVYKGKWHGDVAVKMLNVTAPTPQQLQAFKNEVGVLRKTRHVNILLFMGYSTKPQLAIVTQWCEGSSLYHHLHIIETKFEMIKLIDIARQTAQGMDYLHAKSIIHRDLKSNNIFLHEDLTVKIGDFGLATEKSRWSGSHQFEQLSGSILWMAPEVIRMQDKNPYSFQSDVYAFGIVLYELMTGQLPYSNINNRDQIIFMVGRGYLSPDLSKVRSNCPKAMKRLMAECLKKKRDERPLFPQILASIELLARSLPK

FGFR1 = biological target: T3, FGFR1 (Homo sapiens, UniProt P11362, C488A/C584S); assay: AlphaScreen kinase assay, FGFR1; conditions: read-out: IC50, activity toward kinase FGFR
T3 construct: P1351.pET N6 BI-PTP FGFR A458-E765-X C488A, C584S; made in house; host or cells: E. coli (PTP1B co-expressed)
T3 sequence (P11362 458-765 C488A/C584S): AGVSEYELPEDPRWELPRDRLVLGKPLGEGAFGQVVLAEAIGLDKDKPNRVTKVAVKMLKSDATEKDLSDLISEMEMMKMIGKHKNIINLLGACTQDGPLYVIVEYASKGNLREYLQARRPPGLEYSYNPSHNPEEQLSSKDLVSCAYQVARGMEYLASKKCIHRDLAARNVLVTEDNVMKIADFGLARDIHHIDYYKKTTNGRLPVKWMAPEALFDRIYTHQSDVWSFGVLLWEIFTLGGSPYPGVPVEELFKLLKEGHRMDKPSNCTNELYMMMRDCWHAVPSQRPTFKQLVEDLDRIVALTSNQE

Flt4 = biological target: T4, Flt4 (Homo sapiens, UniProt P35916); assay: AlphaScreen kinase assay, Flt4; conditions: read-out: IC50, activity toward kinase Flt4
T4 construct: purchased ProQinase GmbH (Freiburg, Germany)
T4 sequence (P35916 25-1363): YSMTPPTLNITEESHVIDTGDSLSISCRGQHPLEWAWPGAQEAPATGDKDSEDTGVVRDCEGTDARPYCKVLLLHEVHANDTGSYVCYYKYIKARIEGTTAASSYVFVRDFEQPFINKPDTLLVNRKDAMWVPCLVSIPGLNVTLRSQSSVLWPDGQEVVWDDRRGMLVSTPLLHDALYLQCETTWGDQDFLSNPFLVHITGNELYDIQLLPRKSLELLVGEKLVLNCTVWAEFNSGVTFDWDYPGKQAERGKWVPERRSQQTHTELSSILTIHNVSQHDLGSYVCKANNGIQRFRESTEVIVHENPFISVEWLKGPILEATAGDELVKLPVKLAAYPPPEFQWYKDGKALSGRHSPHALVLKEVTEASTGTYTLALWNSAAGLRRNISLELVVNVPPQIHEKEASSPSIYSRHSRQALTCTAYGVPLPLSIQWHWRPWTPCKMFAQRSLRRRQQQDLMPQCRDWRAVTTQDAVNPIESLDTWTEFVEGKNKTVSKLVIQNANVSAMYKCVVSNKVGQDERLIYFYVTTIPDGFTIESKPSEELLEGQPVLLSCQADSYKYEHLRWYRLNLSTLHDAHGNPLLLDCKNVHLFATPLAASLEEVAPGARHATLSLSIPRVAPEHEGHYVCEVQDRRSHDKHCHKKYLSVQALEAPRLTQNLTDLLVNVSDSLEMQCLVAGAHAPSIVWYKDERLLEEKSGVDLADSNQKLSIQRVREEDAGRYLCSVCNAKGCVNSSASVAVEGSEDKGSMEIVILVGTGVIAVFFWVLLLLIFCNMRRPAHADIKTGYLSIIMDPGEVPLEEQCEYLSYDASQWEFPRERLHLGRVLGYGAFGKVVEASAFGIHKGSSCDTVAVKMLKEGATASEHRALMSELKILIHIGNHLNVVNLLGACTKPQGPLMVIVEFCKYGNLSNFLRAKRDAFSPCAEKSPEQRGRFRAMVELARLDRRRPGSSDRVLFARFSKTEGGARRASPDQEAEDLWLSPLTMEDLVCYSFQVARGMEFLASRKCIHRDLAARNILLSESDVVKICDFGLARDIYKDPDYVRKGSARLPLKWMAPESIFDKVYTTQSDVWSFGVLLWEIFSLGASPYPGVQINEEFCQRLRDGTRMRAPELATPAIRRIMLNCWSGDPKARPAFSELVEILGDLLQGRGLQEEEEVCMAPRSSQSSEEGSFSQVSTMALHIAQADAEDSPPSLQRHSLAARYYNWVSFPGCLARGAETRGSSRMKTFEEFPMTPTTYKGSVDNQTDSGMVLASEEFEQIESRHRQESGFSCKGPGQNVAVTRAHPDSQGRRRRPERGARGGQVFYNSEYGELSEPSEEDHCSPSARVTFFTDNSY
From the text: AlphaScreen assay was used to screen additional kinases. The assay is similarly dependent on the phosphorylation of a peptide substrate. In this assay, an antibody that recognizes phosphorylated substrate is bound to an acceptor bead. The peptide substrate is attached to biotin, which binds to a donor head that contains streptavidin. Thus phosphorylated substrate is bound by antibody and streptavidin, bringing the donor and acceptor heads into close proximity when kinase is not inhibited. The donor produces singlet oxygen which results in emission from the acceptor when they are in close proximity. Conversely, when kinase is inhibited, the donor and acceptor beads are not associated and the emission from the acceptor is reduced.
AlphaScreen assays were done using compounds dissolved in DMSO to a concentration of 20 mM. The compounds were diluted accordingly to the desired final concentrations in each sample well, using 1:3 serial dilution for a total of 8 concentration points.

Jnk3 = biological target: T5, Jnk3 (Homo sapiens, UniProt P53779); assay: AlphaScreen kinase assay, Jnk3; conditions: read-out: IC50, activity toward kinase Jnk3
T5 construct: purchased Upstate Biotechnology
T5 sequence (P53779 whole entry): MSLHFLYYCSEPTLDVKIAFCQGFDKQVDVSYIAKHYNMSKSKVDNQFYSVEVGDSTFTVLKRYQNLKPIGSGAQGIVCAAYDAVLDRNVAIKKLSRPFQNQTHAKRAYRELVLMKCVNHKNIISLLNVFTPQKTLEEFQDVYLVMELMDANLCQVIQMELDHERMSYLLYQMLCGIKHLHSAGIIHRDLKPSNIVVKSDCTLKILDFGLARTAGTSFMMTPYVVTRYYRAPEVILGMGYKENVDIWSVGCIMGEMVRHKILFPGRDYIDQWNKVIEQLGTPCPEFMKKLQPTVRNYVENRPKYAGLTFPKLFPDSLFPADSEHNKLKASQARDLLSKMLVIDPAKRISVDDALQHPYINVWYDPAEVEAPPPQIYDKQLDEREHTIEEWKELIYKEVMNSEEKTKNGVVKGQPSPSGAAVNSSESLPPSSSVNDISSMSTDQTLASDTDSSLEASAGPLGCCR

Kdr = biological target: T6, Kdr (Homo sapiens, UniProt P35968); assay: Z'-Lyte FRET kinase assay (Invitrogen), Kdr; conditions: read-out: IC50, activity toward kinase Kdr
T6 construct: purchased Invitrogen (assay run by Invitrogen)
T6 sequence (P35968 20-1356): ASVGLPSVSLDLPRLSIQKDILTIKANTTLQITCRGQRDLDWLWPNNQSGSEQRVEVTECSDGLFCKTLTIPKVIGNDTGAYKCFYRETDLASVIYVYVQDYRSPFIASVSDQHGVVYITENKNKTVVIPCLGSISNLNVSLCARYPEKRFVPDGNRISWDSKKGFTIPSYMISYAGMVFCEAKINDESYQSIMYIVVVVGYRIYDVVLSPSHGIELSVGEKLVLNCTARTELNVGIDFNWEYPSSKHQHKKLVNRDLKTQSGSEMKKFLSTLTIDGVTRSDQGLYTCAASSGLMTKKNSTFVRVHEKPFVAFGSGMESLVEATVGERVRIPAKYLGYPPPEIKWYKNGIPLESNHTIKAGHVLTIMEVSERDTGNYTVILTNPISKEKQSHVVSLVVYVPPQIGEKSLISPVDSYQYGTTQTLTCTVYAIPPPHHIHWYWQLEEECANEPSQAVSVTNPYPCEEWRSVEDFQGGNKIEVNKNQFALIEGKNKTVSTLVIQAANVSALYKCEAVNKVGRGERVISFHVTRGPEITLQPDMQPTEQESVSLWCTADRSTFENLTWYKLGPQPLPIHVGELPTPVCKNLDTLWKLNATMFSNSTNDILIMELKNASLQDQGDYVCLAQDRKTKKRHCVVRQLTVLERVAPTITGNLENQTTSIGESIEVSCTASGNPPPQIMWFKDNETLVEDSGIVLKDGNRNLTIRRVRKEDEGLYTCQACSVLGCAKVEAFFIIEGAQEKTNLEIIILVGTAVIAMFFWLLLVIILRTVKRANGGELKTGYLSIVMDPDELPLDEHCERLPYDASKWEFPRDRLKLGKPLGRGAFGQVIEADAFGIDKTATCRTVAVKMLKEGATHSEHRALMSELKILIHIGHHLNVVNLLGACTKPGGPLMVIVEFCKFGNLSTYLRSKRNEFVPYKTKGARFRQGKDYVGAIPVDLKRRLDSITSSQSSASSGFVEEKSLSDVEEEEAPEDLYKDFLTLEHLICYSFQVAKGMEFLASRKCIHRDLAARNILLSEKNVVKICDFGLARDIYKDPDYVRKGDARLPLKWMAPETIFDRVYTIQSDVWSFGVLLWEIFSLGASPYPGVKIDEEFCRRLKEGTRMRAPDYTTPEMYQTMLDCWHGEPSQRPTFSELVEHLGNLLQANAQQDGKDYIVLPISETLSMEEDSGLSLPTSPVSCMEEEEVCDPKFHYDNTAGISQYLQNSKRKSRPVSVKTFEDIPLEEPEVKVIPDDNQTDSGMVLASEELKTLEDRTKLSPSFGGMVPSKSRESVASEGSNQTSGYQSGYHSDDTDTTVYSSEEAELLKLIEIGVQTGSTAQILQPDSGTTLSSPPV

Kit = biological target: T7, Kit (Homo sapiens, UniProt P10721); assay: AlphaScreen kinase assay, Kit; conditions: read-out: IC50, activity toward kinase Kit
T7 construct: P1332.N6 BI PTP KIT M552-K948-X COD; His6 (N); made in house; host or cells: E. coli (PTP1B co-expressed)
T7 sequence (P10721 with tags, fused parts or gaps): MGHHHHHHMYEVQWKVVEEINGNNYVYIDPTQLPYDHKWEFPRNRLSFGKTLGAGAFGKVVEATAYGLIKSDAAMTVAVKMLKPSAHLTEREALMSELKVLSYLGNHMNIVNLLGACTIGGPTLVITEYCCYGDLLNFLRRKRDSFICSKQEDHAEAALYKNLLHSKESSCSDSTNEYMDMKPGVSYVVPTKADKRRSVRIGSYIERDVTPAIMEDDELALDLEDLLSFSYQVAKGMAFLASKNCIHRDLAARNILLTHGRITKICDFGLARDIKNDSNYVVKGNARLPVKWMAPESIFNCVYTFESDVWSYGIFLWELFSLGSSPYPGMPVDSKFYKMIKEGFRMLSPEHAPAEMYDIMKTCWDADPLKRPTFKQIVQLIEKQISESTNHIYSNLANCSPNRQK

Ret = biological target: T8, Ret (Homo sapiens, UniProt P07949); assay: AlphaScreen kinase assay, Ret; conditions: read-out: IC50, activity toward kinase Ret
T8 construct: P1378.pET-SF BI-PTP RET H661-R1012 HIS; made in house
T8 sequence (P07949 with tags, fused parts or gaps): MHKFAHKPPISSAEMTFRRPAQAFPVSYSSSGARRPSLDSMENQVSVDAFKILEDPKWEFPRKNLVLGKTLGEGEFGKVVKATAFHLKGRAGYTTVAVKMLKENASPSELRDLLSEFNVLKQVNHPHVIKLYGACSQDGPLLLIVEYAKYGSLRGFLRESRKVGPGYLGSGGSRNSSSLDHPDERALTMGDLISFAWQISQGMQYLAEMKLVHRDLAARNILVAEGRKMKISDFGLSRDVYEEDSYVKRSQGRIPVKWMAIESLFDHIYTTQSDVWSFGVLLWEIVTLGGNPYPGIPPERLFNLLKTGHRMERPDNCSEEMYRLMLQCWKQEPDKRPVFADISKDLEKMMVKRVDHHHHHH

Src = biological target: T9, Src (Homo sapiens, UniProt P12931); assay: AlphaScreen kinase assay, Src; conditions: read-out: IC50, activity toward kinase Src
T9 construct: P1144. pET-N6 BI-PTP SRC V86-L536-X; made in house

c-Raf-1 = biological target: T10, c-Raf-1 (Homo sapiens, UniProt P04049); assay: AlphaScreen kinase assay, c-Raf-1; conditions: read-out: IC50, activity toward kinase c-Raf-1
T10 construct: purchased Upstate Biotechnology

Flt1 = biological target: T11, Flt1 (Homo sapiens, UniProt P17948); assay: AlphaScreen kinase assay, Flt1; conditions: read-out: IC50, activity toward kinase Flt1
T11 construct: P1826.pETN6 BI-PTP FLT1 M799-D1165-X WT; His6 (N); made in house; host or cells: E. coli (PTP1B co-expressed)
T11 sequence (P17948 with tags, fused parts or gaps): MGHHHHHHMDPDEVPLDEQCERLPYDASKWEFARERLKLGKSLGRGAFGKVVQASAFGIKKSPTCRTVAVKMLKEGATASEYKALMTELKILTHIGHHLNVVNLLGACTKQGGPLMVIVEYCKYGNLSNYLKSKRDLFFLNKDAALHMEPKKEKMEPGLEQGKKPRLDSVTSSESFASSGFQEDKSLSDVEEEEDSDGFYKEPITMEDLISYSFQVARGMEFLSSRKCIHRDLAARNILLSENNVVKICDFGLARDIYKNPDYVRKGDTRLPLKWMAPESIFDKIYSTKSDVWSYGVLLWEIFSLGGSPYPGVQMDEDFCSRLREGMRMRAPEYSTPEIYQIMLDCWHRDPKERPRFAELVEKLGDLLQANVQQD

Fms = biological target: T12, Fms (Homo sapiens, UniProt P07333); assay: AlphaScreen kinase assay, Fms; conditions: read-out: IC50, activity toward kinase Fms
T12 construct: purchased Upstate Biotechnology

Fak = biological target: T13, Fak (Homo sapiens, UniProt Q05397); assay: AlphaScreen kinase assay, Fak; conditions: read-out: IC50, activity toward kinase Fak
T13 construct: P1358.pFastBacHtb FAK S411-Q686-X; His6 with pFastBacHTb leader (TEV site) (N); made in house; host or cells: Sf9 (baculovirus)
T13 sequence (Q05397 411-686): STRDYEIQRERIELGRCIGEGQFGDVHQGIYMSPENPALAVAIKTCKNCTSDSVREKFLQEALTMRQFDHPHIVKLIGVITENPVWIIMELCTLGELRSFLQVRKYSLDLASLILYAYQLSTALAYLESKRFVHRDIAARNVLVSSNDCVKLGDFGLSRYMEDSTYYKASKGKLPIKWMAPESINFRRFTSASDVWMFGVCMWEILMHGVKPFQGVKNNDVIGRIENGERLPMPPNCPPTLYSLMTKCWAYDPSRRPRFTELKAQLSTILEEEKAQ

Jnk1 = biological target: T14, Jnk1 (Homo sapiens, UniProt P45983); assay: AlphaScreen kinase assay, Jnk1; conditions: read-out: IC50, activity toward kinase Jnk1
T14 construct: purchased Upstate Biotechnology
T14 sequence (P45983 whole entry): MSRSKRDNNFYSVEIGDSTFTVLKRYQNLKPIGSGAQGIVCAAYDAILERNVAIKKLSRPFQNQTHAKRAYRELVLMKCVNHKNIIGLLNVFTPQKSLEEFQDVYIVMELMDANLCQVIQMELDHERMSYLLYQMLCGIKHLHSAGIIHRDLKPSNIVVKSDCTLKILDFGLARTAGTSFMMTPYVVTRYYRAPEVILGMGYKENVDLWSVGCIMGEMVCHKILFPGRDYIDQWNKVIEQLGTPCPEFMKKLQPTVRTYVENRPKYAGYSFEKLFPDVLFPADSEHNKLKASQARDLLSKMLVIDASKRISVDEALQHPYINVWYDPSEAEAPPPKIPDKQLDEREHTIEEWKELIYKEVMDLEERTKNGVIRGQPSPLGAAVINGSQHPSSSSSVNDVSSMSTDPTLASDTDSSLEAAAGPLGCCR

Zap70 = biological target: T15, Zap70 (Homo sapiens, UniProt P43403); assay: AlphaScreen kinase assay, Zap70; conditions: read-out: IC50, activity toward kinase Zap70
T15 construct: P1868.pFastBac1 ZAP70 D327-G606 HIS, WT; His7 (HHHHHHH) (C); made in house
T15 sequence (P43403 with tags, fused parts or gaps): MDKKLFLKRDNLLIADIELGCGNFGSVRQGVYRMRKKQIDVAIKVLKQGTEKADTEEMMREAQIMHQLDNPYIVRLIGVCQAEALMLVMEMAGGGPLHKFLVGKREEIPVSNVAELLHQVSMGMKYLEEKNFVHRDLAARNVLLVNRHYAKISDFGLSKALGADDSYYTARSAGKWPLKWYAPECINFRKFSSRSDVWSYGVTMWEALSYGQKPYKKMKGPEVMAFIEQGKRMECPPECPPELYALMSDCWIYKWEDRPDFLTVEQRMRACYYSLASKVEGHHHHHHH
Procedure, shortened: as §1

IC50 (Abl) | IC50 (B-Raf V600E) | IC50 (FGFR1) | IC50 (Flt4) | IC50 (Jnk3) | IC50 (Kdr) | IC50 (Kit) | IC50 (Ret) | IC50 (Src) | IC50 (c-Raf-1) | IC50 (Flt1) | IC50 (Fms) | IC50 (Fak) | IC50 (Jnk1) | IC50 (Zap70) | SMILES
≤ 10 µM | ≤ 10 µM | ≤ 10 µM | ≤ 10 µM | ≤ 10 µM | ≤ 10 µM | ≤ 10 µM | ≤ 10 µM | ≤ 10 µM |  |  |  |  |  |  | NC(=O)c1ccc(-c2cnc3[nH]cc(C(=O)c4cccc(O)c4)c3c2)cc1 [Compound P-0645]
≤ 10 µM | ≤ 10 µM | ≤ 10 µM | ≤ 10 µM | ≤ 10 µM |  | ≤ 10 µM | ≤ 10 µM |  | ≤ 10 µM | ≤ 10 µM | ≤ 10 µM |  |  |  | COc1ccc(F)c(C(=O)c2c[nH]c3ncc(-c4cccs4)cc23)c1 [Compound P-0656]
≤ 10 µM | ≤ 10 µM | ≤ 10 µM | ≤ 10 µM | ≤ 10 µM | ≤ 10 µM | ≤ 10 µM | ≤ 10 µM |  |  | ≤ 10 µM |  | ≤ 10 µM | ≤ 10 µM |  | NC(=O)c1ccc(-c2cnc3[nH]cc(C(=O)c4ccccc4F)c3c2)cc1 [Compound P-0691]
 |  |  | ≤ 10 µM | ≤ 10 µM | ≤ 10 µM | ≤ 10 µM | ≤ 10 µM |  |  |  |  |  |  | ≤ 10 µM | Nc1cccc(-c2cnc3[nH]cc(C(=O)c4ccc5nsnc5c4)c3c2)c1 [Compound P-0703]
≤ 10 µM |  |  | ≤ 10 µM | ≤ 10 µM | ≤ 10 µM | ≤ 10 µM | ≤ 10 µM |  |  |  |  |  |  |  | Nc1cccc(-c2cnc3[nH]cc(C(=O)c4ccc(Cl)cc4)c3c2)c1 [Compound P-0738]
≤ 10 µM | ≤ 10 µM | ≤ 10 µM | ≤ 10 µM |  | ≤ 10 µM | ≤ 10 µM | ≤ 10 µM |  |  | ≤ 10 µM |  |  |  |  | O=C(c1cccc(Cl)c1Cl)c1c[nH]c2ncc(-c3cccnc3)cc12 [Compound P-0751]
≤ 10 µM | ≤ 10 µM |  | ≤ 10 µM |  | ≤ 10 µM | ≤ 10 µM | ≤ 10 µM |  |  |  |  |  |  |  | Cc1cc(C(=O)c2c[nH]c3ncc(-c4ccc(C(N)=O)cc4)cc23)n(C)n1 [Compound P-0762]
